Consider four molecules from patent publication US5866573A, “Pyrazinone thrombin inhibitors” (Merck & Co., Inc., priority 1997, dated 1999).

The target of assay [1] is human α-thrombin (Homo sapiens, UniProt P00734). In words: In vitro assay for determining proteinase inhibition: human α-thrombin. The format is biochemical. Conditions: inhibitory activity against human thrombin, class symbols of Tables 1-3; 25° C., pH 7.4. How it is done: Assays of human α-thrombin and human trypsin were performed by the methods substantially as described in Thrombosis Research, Issue No. 70, page 173 (1993) by S. D. Lewis et al.
The assays were carried out at 25° C. in 0.05M TRIS buffer pH 7.4, 0.15M NaCl, 0.1% PEG. Trypsin assays also contained 1 mM CaCl2. In assays wherein rates of hydrolysis of a p-nitroanilide (pna) substrate were determined, a Thermomax 96-well plate reader was used was used to measure (at 405 nm) the time dependent appearance of p-nitroaniline. sar-PR-pna was used to assay human α-thrombin (Km =125 μM) and bovine trypsin (Km =125 μM). p-Nitroanilide substrate concentration was determined from measurements of absorbance at 342 nm using an extinction coefficient of 8270 cm^-1 M^-1.
In certain studies with potent inhibitors (Ki <10 nM) where the degree of inhibition of thrombin was high, a more sensitive activity assay was employed. In this assay the rate of thrombin catalyzed hydrolysis of the fluorogenic substrate Z-GPR-afc (Km =27 μM) was determined from the increase in fluorescence at 500 nm (excitation at 400 nm) associated with production of 7-amino-4-trifluoromethyl coumarin. Concentrations of stock solutions of Z-GPR-afc were determined from measurements of absorbance at 380 nm of the 7-amino-4-trifluoromethyl coumarin produced upon complete hydrolysis of an aliquot of the stock solution by thrombin.
Activity assays were performed by diluting a stock solution of substrate at least tenfold to a final concentration ≤0.1 Km into a solution containing enzyme or enzyme equilibrated with inhibitor. Times required to achieve equilibration between enzyme and inhibitor were determined in control experiments. Initial velocities of product formation in the absence (Vo) or presence of inhibitor (Vi) were measured. […]

The test system of assay [2] is thrombotic occlusion. In words: In vivo rat ferric chloride assay to measure thrombotic occlusions. On the set-up: species or system Male Sprague-Dawley rats. The settings on record: 10 μg/kg/min i.v. infusion from 60 min before 35% FeCl3 and 90 min after, 6 rats. How it is done:
Studies of 3 (2-Phenylethylarnino)-6-methyl-1-(2-amino-6-following rat ferric chloride assay substantially as described in Thrombosis Research, No. 60, page 269(1990) by Kurtz et al were used to determine in vivo activity of the thrombin inhibitors of the invention. Male Sprague-Dawley rats (b)ody weights 200-350 grams) were anesthetized with dial-urethane solution (0.1 ml/100 gm body weight i.p.), and a lateral tail vein was cannulated with a 23 gauge needle connected to a 12 inch length of PE50 tubing. The tubing was attached to a 3-way valve by a tubing adapter. Saline (control) or test compound, as appropriate, was administered via the tail vein catheter. A tracheostomy was performed with a 0.75 inch length of PE205 tubing. The right carotid artery is exposed and a 1.3 mm diameter Doppler flow probe was placed on the vessel. Body temperature was maintained at 37° C. using a heat lamp.
6 rats were randomized to continuous intravenous infusions of saline or test compound administered via the tail vein. Test compound was administered at a rate of 10 μg/kg/min. Treatment infusions were initiated 60 min before the placement of a 3 mm square piece of Whatman No. 1 filter paper saturated with 35% FeCl3 onto the exposed carotid artery distal to the flow probe. […] Time to occlusion was defined as the time from application of FeCl3 to thrombotic occlusion of the vessel.

In general, Ki refers to the equilibrium dissociation constant of an inhibitor or competing ligand from its target. A lower Ki goes with tighter binding.

In the case of `CCNC(=O)COc1ccccc1CNC(=O)Cn1c(C)cnc(NCCc2ccccc2)c1=O` [H, NHC2 H5], in assay [1], the Ki was less than 1 nM.
The same measure, in the same setting: to `Cc1nc(N)ccc1CNC(=O)Cn1c(C)cnc(NC(C)(C)Cc2ccccc2)c1=O` [PhCH2 C(CH3)2] belongs not below 1 nM; to `CCNC(=O)COc1ccc(Cl)cc1CNC(=O)Cn1c(C)cnc(NC(C)(C)C)c1=O` [t-C4 H9], not below 1 nM.
Regarding `Cc1nc(N)ccc1CNC(=O)Cn1c(C)cnc(NCCc2ccccc2)c1=O` [test compound], in assay [2], the “efficacy in rat ferric chloride assay” value was “fully efficacious” and the “rats showing evidence of thrombotic occlusion” value is reported as “None of the rats treated with the test compound showed evidence of thrombotic occlusion”.
